Each compound was assayed against recombinant human S1P1 receptor (Homo sapiens, UniProt P21453) (assay: GTPγS assay to determine EC50 values). Conditions: not given.
Assay type: biochemical
Experimental: GTPγS Assay to Determine EC50 Values
The pH is 7.4. Test compounds are dissolved and diluted in 100% DMSO and pre-incubated at room temperature for 30 min in 150 μl of the above assay buffer, in the absence of ^35S-GTPγS. After addition of 50 μl of ^35S-GTPγS, the assay is incubated for 1 h at rt. […] Membrane-bound ^35S-GTPγS is measured with a TopCount from Packard Biosciences.
Specific binding is determined by subtracting non-specific binding from maximal binding. Maximal binding is the amount of cpm bound to the Multiscreen plate in the presence of 10 μM of S1P. Non-specific binding is the amount of binding in the absence of an agonist in the assay.

Sequence of recombinant human S1P1 receptor (P21453 whole entry): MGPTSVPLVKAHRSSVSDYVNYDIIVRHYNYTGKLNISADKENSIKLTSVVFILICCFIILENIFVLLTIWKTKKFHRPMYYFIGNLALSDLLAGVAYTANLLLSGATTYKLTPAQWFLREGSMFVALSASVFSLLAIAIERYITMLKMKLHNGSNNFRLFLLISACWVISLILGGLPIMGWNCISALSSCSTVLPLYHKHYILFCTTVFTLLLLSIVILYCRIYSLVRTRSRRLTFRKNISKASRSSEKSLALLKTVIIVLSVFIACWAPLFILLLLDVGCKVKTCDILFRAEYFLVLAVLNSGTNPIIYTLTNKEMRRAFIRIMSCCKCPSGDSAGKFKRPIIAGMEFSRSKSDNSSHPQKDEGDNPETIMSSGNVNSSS

Structure (SMILES)	EC50
CCc1cc(-c2nc(-c3cc(C)c(CCC(=O)NCCO)c(CC)c3)no2)cnc1N(C)C(C)C [Example 46, 3-(2-Ethyl-4-{5-[5-ethyl-6-(isopropyl-methyl-amino)-pyridin-3-yl]-[1,2,4]oxadiazol-3-yl}-6-methyl-phenyl)-N-(2-hydroxy-ethyl)-propionamide]	5 nM

Same assay, conditions: 35S-GTPγS binding, membrane preparations of CHO cells expressing recombinant human S1P1 receptor; read-out: EC50

Structure (SMILES)	EC50
CCc1cc(-c2nc(-c3cc(C)c(OC[C@@H](O)CO)c(CC)c3)no2)cnc1N(C)C(C)C [Example 31, (S)-3-(2-Ethyl-4-{5-[5-ethyl-6-(isopropyl-methyl-amino)-pyridin-3-yl]-[1,2,4]oxadiazol-3-yl}-6-methyl-phenoxy)-propane-1,2-diol]	17 nM
CCc1cc(-c2nc(-c3cc(C)c(CCC(=O)NCC(=O)O)c(CC)c3)no2)cnc1N(CC)CC [Example 44, (3-{4-[5-(6-Diethylamino-5-ethyl-pyridin-3-yl)-[1,2,4]oxadiazol-3-yl]-2-ethyl-6-methyl-phenyl}-propionylamino)-acetic acid]	4 nM
CCN(CC)c1ncc(-c2nc(-c3ccc(OC[C@@H](O)CNC(=O)CO)cc3C)no2)cc1C [Example 58, N-((S)-3-{4-[5-(6-Diethylamino-5-methyl-pyridin-3-yl)-[1,2,4]oxadiazol-3-yl]-3-methyl-phenoxy}-2-hydroxy-propyl)-2-hydroxy-acetamide]	14 nM
CCN(CC)c1ncc(-c2nc(-c3cc(C)c(OC[C@@H](O)CO)c(Cl)c3)no2)cc1C [Example 63, (S)-3-{2-Chloro-4-[5-(6-diethylamino-5-methyl-pyridin-3-yl)-[1,2,4]oxadiazol-3-yl]-6-methyl-phenoxy}-propane-1,2-diol]	5.2 nM
CCN(CC)c1ncc(-c2nc(-c3cc(Cl)c(OC[C@@H](O)CO)c(OC)c3)no2)cc1C [Example 64, (S)-3-{2-Chloro-4-[5-(6-diethylamino-5-methyl-pyridin-3-yl)-[1,2,4]oxadiazol-3-yl]-6-methoxy-phenoxy}-propane-1,2-diol]	8.9 nM

Next, values leading:

EC50	Structure (SMILES)
3 nM	CCc1cc(-c2noc(-c3cnc(N(C)CC)c(C)c3)n2)cc(C)c1OC[C@H](O)CNC(=O)CO [Example 6, N-[(R)-3-(2-Ethyl-4-{5-[6-(ethyl-methyl-amino)-5-methyl-pyridin-3-yl]-[1,2,4]oxadiazol-3-yl}-6-methyl-phenoxy)-2-hydroxy-propyl]-2-hydroxy-acetamide]
20 nM	CCc1cc(-c2noc(-c3cnc(N(C)C(C)C)c(C)c3)n2)cc(C)c1OC[C@@H](O)CNC(=O)CO [Example 15, N-[(S)-3-(2-Ethyl-4-{5-[6-(isopropyl-methyl-amino)-5-methyl-pyridin-3-yl]-[1,2,4]oxadiazol-3-yl}-6-methyl-phenoxy)-2-hydroxy-propyl]-2-hydroxy-acetamide]
12 nM	CCc1cc(-c2nc(-c3cc(C)c(OC[C@@H](O)CO)c(CC)c3)no2)cnc1N(CC)CC [Example 24, (S)-3-{4-[5-(6-Diethylamino-5-ethyl-pyridin-3-yl)-[1,2,4]oxadiazol-3-yl]-2-ethyl-6-methyl-phenoxy}-propane-1,2-diol]
3 nM	CCc1cc(-c2nc(-c3cc(C)c(OC[C@H](O)CNC(=O)CO)c(CC)c3)no2)cnc1N(C)C(C)C [Example 34, N-[(R)-3-(2-Ethyl-4-{5-[5-ethyl-6-(isopropyl-methyl-amino)-pyridin-3-yl]-[1,2,4]oxadiazol-3-yl}-6-methyl-phenoxy)-2-hydroxy-propyl]-2-hydroxy-acetamide]
0.9 nM	CCN(CC)c1ncc(-c2nc(-c3cc(C)c(OC[C@@H](O)CNC(=O)CO)c(C)c3)no2)cc1C [Example 55, N-((S)-3-{4-[5-(6-Diethylamino-5-methyl-pyridin-3-yl)-[1,2,4]oxadiazol-3-yl]-2,6-dimethyl-phenoxy}-2-hydroxy-propyl)-2-hydroxy-acetamide]
1.3 nM	CCN(CC)c1ncc(-c2nc(-c3cc(C)c(OC[C@@H](O)CNC(=O)CO)c(Cl)c3)no2)cc1C [Example 56, N-((S)-3-{2-Chloro-4-[5-(6-diethylamino-5-methyl-pyridin-3-yl)-[1,2,4]oxadiazol-3-yl]-6-methyl-phenoxy}-2-hydroxy-propyl)-2-hydroxy-acetamide]
21.2 nM	CCc1cc(-c2nnc(-c3cnc(N(CC)CC)c(C)c3)o2)cc(C)c1OC[C@@H](O)CNC(=O)CO [Example 68, N-((2S)-3-{4-[5-(6-Diethylamino-5-methyl-pyridin-3-yl)-[1,3,4]oxadiazol-2-yl]-2-ethyl-6-methyl-phenoxy}-2-hydroxy-propyl)-2-hydroxy-acetamide]

Same assay, conditions: 35S-GTPγS binding, membranes of CHO cells expressing human S1P1; read-out: EC50

EC50	Structure (SMILES)
> 10000 nM	CCc1cc(-c2noc(-c3cnc(N4CCCC4)c(C)c3)n2)cc(C)c1OC[C@H](O)CN [Example 18]
> 10000 nM	CCc1cc(-c2noc(-c3cnc(N4CCCC4)c(C)c3)n2)cc(C)c1OC[C@@H](O)CN [Example 19]

What follows are compounds tested on circulating lymphocytes (assay: Assessment of in vivo efficacy: circulating lymphocytes after oral administration). Conditions: 6 h after oral administration of 10 mg/kg, normotensive male Wistar rats, compared to vehicle-treated group.
Set-up: species or system rat
Experimental: Assessment of In Vivo Efficacy
The efficacy of the compounds of Formula (I) is assessed by measuring the circulating lymphocytes after oral administration of 3 to 30 mg/kg of a compound of Formula (I) to normotensive male Wistar rats. The animals are housed in climate-controlled conditions with a 12 h-light/dark cycle, and have free access to normal rat chow and drinking water. Blood is collected before and 3, 6 and 24 h after drug administration. Full blood is subjected to hematology using Advia Hematology system (Bayer Diagnostics, Zürich, Switzerland).
All data are presented as mean±SEM. Statistical analyses are performed by analysis of variance (ANOVA) using Statistica (StatSoft) and the Student-Newman-Keuls procedure for multiple comparisons. The null hypothesis is rejected when p<0.05.

Structure (SMILES)	Lymphocyte counts
CCc1cc(-c2noc(-c3cnc(N(CC)CC)c(C)c3)n2)cc(C)c1OC[C@@H](O)CNC(=O)CO [Example 8, N-((S)-3-{-4-[5-(6-Diethylamino-5-methyl-pyridin-3-yl)-[1,2,4]oxadiazol-3-yl]-2-ethyl-6-methyl-phenoxy}-2-hydroxy-propyl)-2-hydroxy-acetamide]	−66%
CCc1cc(-c2nc(-c3cc(C)c(OC[C@H](O)CNC(=O)CO)c(CC)c3)no2)cnc1N(CC)CC [Example 27, N-((R)-3-{4-[5-(6-Diethylamino-5-ethyl-pyridin-3-yl)-[1,2,4]oxadiazol-3-yl]-2-ethyl-6-methyl-phenoxy}-2-hydroxy-propyl)-2-hydroxy-acetamide]	−55%
CCc1cc(-c2nc(-c3cc(C)c(OC[C@@H](O)CNC(=O)CO)c(CC)c3)no2)cnc1N(CC)CC [Example 28, N-((S)-3-{4-[5-(6-Diethylamino-5-ethyl-pyridin-3-yl)-[1,2,4]oxadiazol-3-yl]-2-ethyl-6-methyl-phenoxy}-2-hydroxy-propyl)-2-hydroxy-acetamide]	−56%
CCc1cc(-c2nc(-c3cc(C)c(OC[C@@H](O)CNC(=O)CO)c(CC)c3)no2)cnc1N1CCCC1 [Example 54, N-((S)-3-{2-Ethyl-4-[5-(5-ethyl-6-pyrrolidin-1-yl-pyridin-3-yl)-[1,2,4]oxadiazol-3-yl]-6-methyl-phenoxy}-2-hydroxy-propyl)-2-hydroxy-acetamide]	−57%
